Source: patent US10092541B2, “Methods for the treatment of diseases ameliorated by PDE4 inhibition using dosage titration of apremilast” (CELGENE CORPORATION, priority 2014, dated 2018)
Marks after values point to notes of the source that are not given here.

Assays:
Assay type in all cases: in vivo, human
[1] = test system: patients with moderate to severe plaque psoriasis; assay: Esteem 1: randomized, double-blind, placebo controlled, multicenter clinical study in psoriasis; conditions: for PASI-75, %: primary endpoint
Description: In the study 844 patients were enrolled; patients ranged in age from 18 to 83 years, with an overall median age of 46 years. The mean baseline body surface area (BSA) involvement was 25.19% (median 21.0%), the mean baseline PASI score was 19.07 (median 16.80), and the proportion of patients with sPGA score of 3 (moderate) and 4 (severe) at Baseline were 70.0% and 29.8%, respectively. Patients were randomized to Apremilast, in an amount of 30 mg twice per day (after the initial dose titration schedule) or placebo for the first 16 weeks, and from Weeks 16 to 32, all patients received Apremilast in an amount of 30 mg twice per day.
Target Dose: 30 mg (po) BID
Day 1: 10 mg in the morning
Day 2: 10 mg morning; 10 mg after noon
Day 3: 10 mg morning; 20 mg after noon
Day 4: 20 mg morning; 20 mg after noon
Day 5: 20 mg morning; 30 mg after noon
During the Randomized Treatment Withdrawal Phase (Weeks 32-52), patients originally randomized to Apremilast who achieved at least a 75% reduction in PASI score (PASI-75) at Week 32 were re-randomized to either placebo or Apremilast 30 mg BID. Patients who were re-randomized to placebo and who lost PASI-75 response at Week 32 compared to Baseline, were retreated with Apremilast 30 mg BID.

peripheral whole blood = assay: Differential gene expression analyses (microarray) in atopic dermatitis patients
Description: As an exploratory end point to potentially identify immune pathways affected by apremilast, peripheral whole blood was obtained for differential gene expression analyses at baseline and after 3 (cohort 1) and 6 (cohort 2) months of treatment to determine apremilast's potential mechanism of action in patients with atopic dermatitis. RNA isolation and microarray analyses were performed in the Oregon Health and Science University Gene Microarray Shared Resource. Total RNA was isolated from PAXGene tubes using the PAXGene Blood RNA Isolation kit (QIAGEN Inc). RNA quantity was measured by spectrophotometric analysis; RNA quality was evaluated by size analysis on the Bioanalyzer 2100 (Agilent Technologies Inc). All samples passed RNA quality assessment review.
RNA samples were labeled using the OvationWTAPico Amplification and Labeling System (NuGEN Technologies Inc). Fifty nanograms of each sample were amplified with the Ovation WTA Pico kit, converted to sense complementary DNA (cDNA) with the WT-Ovation Exon Module, version 1, kit, and labeled with the Encore Biotin Module kit. Hybridization and array processing were performed as described in the NuGEN Encore Biotin Module User Guide http://www.nugeninc.com/tasks/sites/nugen/assets/File/user_guides/userguide_encore_biotin.pdf). Two micrograms of each labeled cDNA target werehybridized with the GeneChip Human Gene 1.0 ST array (Affymetrix) and scanned on the Affymetrix GeneChip 3000 Scanner. The array image was processed with Affymetrix Command Console (version 3.1.1). Data were normalized using the robust multichip average method.
Differential expression analyses were performed on 16 paired samples. All putatively differentially expressed genes were based on false discovery rate-adjusted P values<0.05. Based on the putative differentially expressed gene list, both enriched pathways and functional gene ontologic characteristics were identified (P<0.05 for hypergeometric test) in the GoStats package within the Bioconductor statistical programming environment (http://www.bioconductor.org).

[2] = test system: patients with moderate to severe atopic dermatitis; assay: Open-label pilot study of 2 doses of apremilast in adult atopic dermatitis; conditions: for DLQI scores, average reduction / EASI scores, average reduction / patients who reduced their IGA score by 1 U / average reduction in itch using a VAS / DLQI score, mean after treatment / EASI score, mean after treatment / VAS for pruritus, mean after treatment: 3 months; for average reduction in itch using a VAS: intent-to-treat; for EASI after treatment: from 21.1
[3] = 77 PASI 75 responders re-randomized to apremilast 30 mg BID at Week 32
[4] = Week 16, 30 mg twice daily, n = 562, LOCF
[5] = Week 16, 30 mg twice daily, n = 562, LOCF, listed as Apremilast
[6] = Week 16, 30 mg twice daily, patients with baseline DLQI >5, n = 459
[7] = Week 16, 30 mg twice daily, patients with nail psoriasis at baseline, n = 363
[8] = cohort 1, 20 mg twice a day, baseline vs 3 months
[9] = cohort 2, 30 mg twice a day, 6 months

SMILES: CCOc1cc([C@@H](CS(C)(=O)=O)N2C(=O)c3cccc(NC(C)=O)c3C2=O)ccc1OC [apremilast, (+)-2-[1-(3-ethoxy-4-methoxyphenyl)-2-methylsulfonylethyl]-4-acetylaminoisoindoline-1,3-dione]
- Non-overlapping confidence intervals vs placebo in mean percentage improvement in PASI from baseline, first detected ([1]; 30 mg twice daily): as early as Week 2
- Responses to apremilast from Weeks 16 to 32 ([1]; 30 mg twice daily): generally maintained
- regained PASI 75 response after re-treatment, % ([1]; 64 patients re-randomized to placebo who re-initiated apremilast before Week 52 after losing PASI 75): 70.3%
- PASI-75 response at Week 52, % [1, 3]: 61.0%
- at least 70% improvement in PASI score from baseline at Week 52, % [1, 3]: 75.3%
- Mean change in DLQI score [1, 4]: −6.6
- PASI-50, % [1, 4]: (58.7%)*
- PASI-90, % [1, 4]: (9.8%)*
- Percentage change in PASI score, mean (SD) [1, 4]: −52.1%
- Percentage change in PASI score, median (range) [1, 4]: −59.0%
- sPGA response (score 0 or 1 with at least two-point reduction), % [1, 4]: 21.7%
- sPGA response (score 0 or 1 with at least two-point reduction), % [1, 5]: (21.7%)*
- PASI-75, % [1, 4]: 33.1%
- PASI-75, % [1, 5]: (33.1%)*
- DLQI + PASI-50 response, % [1, 6]: (48.1%)*
- DLQI response (decrease of at least five points), % [1, 6]: (70.2%)*
- NAPSI-50, % [1, 7]: (33.3%)*
- Percentage change in NAPSI score, mean (SD) [1, 7]: −22.5%
- ScPGA score 0-1, % ([1]; Week 16, 30 mg twice daily, patients with scalp psoriasis (ScPGA at least 3) at baseline, n = 374): (46.5%)*
- Severity of the majority of adverse events ([1]; did not lead to discontinuation): mild to moderate
- 5 most common adverse events (AEs) ([1]; human, in vivo): diarrhea, nausea, upper respiratory tract infection, tension headache, and headache
- Discontinuation due to upper respiratory tract infection ([1]; human, in vivo): No patient discontinued
- Discontinuations due to AEs: diarrhea ([1]; human, in vivo): 0.8%
- Discontinuations due to AEs: headache ([1]; human, in vivo): 0.4%
- Discontinuations due to AEs: nausea ([1]; human, in vivo): 1.2%
- Discontinuations due to AEs: tension headache ([1]; human, in vivo): 0.2%
- Mean percentage change from baseline in PASI score at Week 52 ([1]; patients re-randomized to apremilast 30 mg BID at Week 32): 80.5%
- Median time to first loss of PASI 75 after re-randomization ([1]; patients re-randomized to apremilast at Week 32): 17.7 weeks
- signs and symptoms of psoriasis ([1]; study conclusion): significantly improved
- BAD (bcl-2 antagonist of cell death) phosphorylation pathway gene expression (peripheral whole blood; [8]): significant differential expression
- IL-12 signaling (gene ontologic analysis) (peripheral whole blood; [8]): significant differential expression
- cAMP response element binding (CREB) pathway gene expression (peripheral whole blood; [8]): significant differential expression
- chemokine-mediated signaling (gene ontologic analysis) (peripheral whole blood; [8]): significant differential expression
- cytoskeleton remodeling (gene ontologic analysis) (peripheral whole blood; [8]): significant differential expression
- regulation of immune complex clearing by monocytes and macrophages (gene ontologic analysis) (peripheral whole blood; [8]): significant differential expression
- CCR3 signaling in eosinophils gene expression (peripheral whole blood; cohort 2, 30 mg twice a day, baseline vs 6 months): significant differential expression
- DLQI after treatment ([2]; both cohorts combined, post hoc intent-to-treat, mean baseline 11.6): 4.7
- EASI score after treatment ([2]; both cohorts combined, post hoc intent-to-treat, mean baseline 24.8): 16.2
- VAS after treatment ([2]; both cohorts combined, post hoc intent-to-treat, mean baseline 52.0 mm): 31.7 mm
- time to statistically significant decline in pruritus ([2]; cohort 1, 20 mg twice a day): ≤ 2 weeks
- DLQI scores, average reduction ([2]; cohort 1, 20 mg twice a day): 55%
- EASI scores, average reduction ([2]; cohort 1, 20 mg twice a day): 19%
- patients who reduced their IGA score by 1 U ([2]; cohort 1, 20 mg twice a day, 6 patients): 1
- average reduction in itch using a VAS ([2]; cohort 1, 20 mg twice a day): 49%
- DLQI score, mean after treatment ([2]; cohort 1, 20 mg twice a day, mean baseline 14.2): 6.2
- EASI score, mean after treatment ([2]; cohort 1, 20 mg twice a day, mean baseline 30.9): 22.1
- VAS for pruritus, mean after treatment ([2]; cohort 1, 20 mg twice a day, mean baseline 62.3 mm): 30.5 mm
- time to statistically significant clinical improvement in atopic dermatitis ([2]; cohort 2, 30 mg twice a day): ≤ 2 weeks
- patients who achieved an IGA score of mild ([2]; cohort 2, 30 mg twice a day, 3-month time point): One patient
- DLQI scores, average reduction ([2]; cohort 2, 30 mg twice a day): 58%
- EASI scores, average reduction ([2]; cohort 2, 30 mg twice a day): 39%
- patients who reduced their IGA score by 1 U ([2]; cohort 2, 30 mg twice a day, 10 patients): Two of 10 patients
- average reduction in itch using a VAS ([2]; cohort 2, 30 mg twice a day): 25%
- VAS for pruritus, mean after treatment ([2]; cohort 2, 30 mg twice a day, baseline 45.8 mm): 32.4 mm
- DLQI score, mean after treatment ([2]; cohort 2, 30 mg twice a day, mean baseline 10.1): 3.8
- EASI score, mean after treatment ([2]; cohort 2, 30 mg twice a day, mean baseline 21.4): 13.2
- patients improved at least 1 U in the IGA, % [2, 9]: 50%
- patients improved at least 1 U in the IGA, number [2, 9]: Five patients
- patients who achieved an IGA of almost clear [2, 9]: 1
- patients who reached an IGA of mild [2, 9]: Four of these 5
- EASI after treatment ([2]; cohort 2, 30 mg twice a day, 6 months, intent to treat): 11.6
- VAS after treatment ([2]; cohort 2, 30 mg twice a day, 6 months, intent to treat, from 45.8 mm): 25.3 mm
- DLQI after treatment ([2]; cohort 2, 30 mg twice a day, 6 months, per protocol, from 10.1): 4.0
- EASI after treatment ([2]; cohort 2, 30 mg twice a day, 6 months, per protocol): 10.4
- VAS after treatment ([2]; cohort 2, 30 mg twice a day, 6 months, per protocol, from 45.8): 22.7
- patients who reached an IGA score of clear or almost clear ([2]; either cohort (20 mg or 30 mg twice a day), 3-month time point): No patient
